Values after ≈ are worked out from the molar mass of the structure shown. Read-outs that look alike come from different tables or passages of the source.
How the values were obtained:
Type in all cases: cell-based
Pseudomonas aeruginosa = assay: MIC of antibiotics by microdilution in liquid medium on plates (Example 18); conditions: Pseudomonas aeruginosa, read-out: MIC (average MIC value)
Method: The unicellular living organism chosen for the trials is Pseudomonas aeruginosa (wild-type strain originating from hospital sources).
The same methodology as for Examples 11 and 12 was follows. Bacteriostatic analyses were performed with a number of antibiotics belonging to benzylpenicillins, and aminopenicillins, and first and second generation cephalosporins, namely:
The determination of the MIC was carried out by the microdilution method in liquid medium on plates. Aqueous solutions of each antibiotic are prepared in MUELLER HINION broth, to obtain dilutions in a geometric ratio of 2. The solvent is sterile double-distilled water.
The preparation of the bacterial inoculum is made with a culture of Pseudomonas aeruginosa, with agitation on a water bath at 37° C. for 4 to 6 hours, giving 10^6 bacteria/ml.
Three trials were performed per antibiotic and per bacterial inoculum. The trials were performed first with the antibiotics alone (trials a).sctn., and then with the addition of a dose of 1 mg/l of an aqueous solution of lithium fluoride (trials b).sctn. to the dilution of each one in every cup of every plate.

Klebsiella pneumonia = assay: Phenotype of resistant wild-type hospital strains with activated antibiotics (Example 35); conditions: Fli 4 ppm
Method: Strains Gram+ and Gram- (wild-type hospital) having a resistant phenotype vis a vis standard firstly and secondly used antibiotherapy were experimented on activated antibiotics.
250 experiments were conducted on the following strains: Streptococcus group B, C, D, F, G, Staphylococcus aureus, Staphylococcus epidermitis, Klebsiella pneumoniae, Klebsiella spirochete, Klebsiella oxytoca, Proteus mirabilis, Serratia marcescens, Escherichia coli, Citrobacter freundii, Enterobacter cloacae, Enterobacter calcoaceticus, Salmonella spirochete, Salmonella typhimurium, Pseudomonas aeruginosa, Haemophilus influenzae, Haemophilus sphrophilus, Acinetobacter calcoaeticus. […]

Proteus morganii = assay: Concentrations of cefotaxime inhibiting 50% of the strains; conditions: Morganella morganii; alone; F20; read-out: 50% inhibitory concentration
Method: (§1) The activity of CEFOTAXIME was tested, alone and then in the presence of lithium fluoride, with respect to pathogenic strains other than Pseudomonas aeruginosa.
(§2) The following table expresses the concentrations (mg/l) of cefotaxime inhibiting 50% of the strains.

Serratia = assay: as above
Method: as §1, §2

Enterobacter = assay: as above
Method: as §1, §2

Klebsiella = assay: as above
Method: as §1, §2

Escherichia coli = assay: as above
Method: as §1, §2

[1] = + LiF 1 mg/l, strain lic R βLac^+ OXA
[2] = + LiF 1 mg/l, strain lic R βLac^+ PSE
[3] = + LiF 1 mg/l, strain lic R βLac^+ TEM
[4] = + LiF 1 mg/l, strain lic R βLac^+ cephalosporinase
[5] = + LiF 1 mg/l, strain lic S βLac^- (first column)
[6] = + LiF 1 mg/l, strain lic S βLac^- (second column)
[7] = alone, strain lic R βLac^+ cephalosporinase
[8] = alone, strain lic S βLac^- (first column)
[9] = alone, strain lic S βLac^- (second column)

| Compound | MIC (Pseudomonas aeruginosa; [1]) | MIC (Pseudomonas aeruginosa; [2]) | MIC (Pseudomonas aeruginosa; [3]) | MIC (Pseudomonas aeruginosa; [4]) | MIC (Pseudomonas aeruginosa; [5]) | MIC (Pseudomonas aeruginosa; [6]) | MIC (Pseudomonas aeruginosa; alone, strain lic R βLac^+ OXA) | MIC (Pseudomonas aeruginosa; alone, strain lic R βLac^+ PSE) | MIC (Pseudomonas aeruginosa; alone, strain lic R βLac^+ TEM) | MIC (Pseudomonas aeruginosa; [7]) | MIC (Pseudomonas aeruginosa; [8]) | MIC (Pseudomonas aeruginosa; [9]) | also measured |
| --- | --- | --- | --- | --- | --- | --- | --- | --- | --- | --- | --- | --- | --- |
| CCN1CCN(C(=O)N[C@@H](C(=O)N[C@@H]2C(=O)N3C(C(=O)O)=C(CSc4nnnn4C)CS[C@H]23)c2ccc(O)cc2)C(=O)C1=O [CEFOPERAZONE, cefoperazone] | 64 µg/mL | 32 µg/mL | 32 µg/mL | 64 µg/mL | 4 µg/mL | 16 µg/mL | 64 µg/mL | 64 µg/mL | 32 µg/mL | 64 µg/mL | 8 µg/mL | 16 µg/mL | phenotype in presence of Fli (Klebsiella pneumonia): the resistant phenotype was not changed |
| CO/N=C(\C(=O)N[C@@H]1C(=O)N2C(C(=O)O)=C(COC(C)=O)CS[C@H]12)c1csc(N)n1 [CEFOTAXIME, cefotaxime] | 16 µg/mL | 16 µg/mL | 32 µg/mL | 256 µg/mL | 8 µg/mL | 16 µg/mL | 32 µg/mL | 32 µg/mL | 32 µg/mL | 256 µg/mL | 16 µg/mL | 32 µg/mL | IC50 (Proteus morganii): 0.01 µg/mL (≈ 0.022 µM); IC50 (Serratia; alone, 1123, read-out: 50% inhibitory concentration): 0.076 µg/mL (≈ 0.167 µM); IC50 (Serratia; alone, MO1117, read-out: 50% inhibitory concentration): 0.3 µg/mL (≈ 0.659 µM); IC50 (Serratia; in the presence of LiF at 1 mg/l, 1123, read-out: 50% inhibitory concentration): 0.076 µg/mL; IC50 (Serratia; in the presence of LiF at 1 mg/l, MO1117, read-out: 50% inhibitory concentration): 0.3 µg/mL; IC50 (Enterobacter; alone, P49, read-out: 50% inhibitory concentration): 27.2 µg/mL (≈ 59.7 µM); IC50 (Enterobacter; alone, T45, read-out: 50% inhibitory concentration): 0.05 µg/mL (≈ 0.11 µM); IC50 (Enterobacter; in the presence of LiF at 1 mg/l, P49, read-out: 50% inhibitory concentration): 23.2 µg/mL; IC50 (Enterobacter; in the presence of LiF at 1 mg/l, T45, read-out: 50% inhibitory concentration): 0.023 µg/mL; IC50 (Klebsiella; alone, 1103, read-out: 50% inhibitory concentration): 0.023 µg/mL (≈ 0.0505 µM); IC50 (Klebsiella; alone, U28, read-out: 50% inhibitory concentration): 0.28 µg/mL (≈ 0.615 µM); IC50 (Klebsiella; in the presence of LiF at 1 mg/l, 1103, read-out: 50% inhibitory concentration): 0.01 µg/mL; IC50 (Klebsiella; in the presence of LiF at 1 mg/l, U28, read-out: 50% inhibitory concentration): 0.16 µg/mL; IC50 (Escherichia coli; alone, K12 J53, read-out: 50% inhibitory concentration): 0.023 µg/mL (≈ 0.0505 µM); IC50 (Escherichia coli; alone, K12 PIP 55, read-out: 50% inhibitory concentration): 0.023 µg/mL (≈ 0.0505 µM); IC50 (Escherichia coli; alone, K12 PIP 111, read-out: 50% inhibitory concentration): 0.023 µg/mL (≈ 0.0505 µM); IC50 (Escherichia coli; alone, SOL, read-out: 50% inhibitory concentration): 0.18 µg/mL (≈ 0.395 µM); IC50 (Escherichia coli; in the presence of LiF at 1 mg/l, K12 J53, read-out: 50% inhibitory concentration): 0.01 µg/mL; IC50 (Escherichia coli; in the presence of LiF at 1 mg/l, K12 PIP 55, read-out: 50% inhibitory concentration): 0.023 µg/mL; IC50 (Escherichia coli; in the presence of LiF at 1 mg/l, K12 PIP 111, read-out: 50% inhibitory concentration): 0.023 µg/mL |
